According to US20040040097A1, “Coloring composition for keratin fibres comprising a system limiting the transcutaneous passage of an oxidation dye” (L'OREAL, priority 2002, published 2004):

Test system: rebuilt skin (for example Epiderm, Episkin or Skinethic)
Assay: Penetration rate of 5,6-dihydroxyindole through rebuilt skin in static diffusion cells, VIS spectrophotometry of oxidation products
Format: in vitro ADME
Settings: 5 mM final concentration, 16 hour coating at an infinite dose
Procedure: The 5,6-dihydroxyindole mixture with the system limiting the transcutaneous passage has been prepared fresh by adding an system equivalent volume (=1 mM MnCl2 in 1 M NaHCO3; pH=10) to an aqueous solution of 10 mM 5,6-dihydroxyindole. Then, it has been coated on rebuilt skin (for example Epiderm® from Mattek, Inc., Episkin® from Episkin SNC or Skinethic® from Skinethic Laboratories) placed in diffusion cells in a static diffusion mode at a dose of 250 mg·cm^2 for 16 hours. The analysis of the penetration rates of 5,6-dihydroxyindole through the skin has been conducted through VIS spectrophotometry through the oxidation products thereof. The 5,6-dihydroxyindole range has been prepared as follows. A plurality of dilutions from 0 to 0.5 mM 5,6-dihydroxindole in receiving liquid has been left for 16 hours at 32° C. for forming oxidation products in the form of a pigment. Such pigments absorb visible light (VIS) (“scattering” effect) depending on their concentration, which is directly related to the initial 5,6-dihydroxyindole concentration. Thus, the 5,6-dihydroxyindol range has been obtained through VIS absorption of such pigments formed after 5,6-dihydroxyindole oxydation. A 1:1 mixture between 10 mM 5,6-dihydroxyindole and distilled water has been used as a control. […]

- penetration rate of the 5,6-dihydroxyindole (with no system (control mixture, 1:1 with distilled water)): approximately 3 % of the dose coated
- penetration rate of the 5,6-dihydroxyindole (with the system (1 mM MnCl2 in 1 M NaHCO3, pH 10, equivalent volume)): lower than 0.5%
SMILES: Oc1cc2cc[nH]c2cc1O [5,6-dihydroxyindole]
